Experimental data: US12311136B2, “Using alternating electric fields to increase permeability of the blood brain barrier” (Novocure GmbH, priority 2020, dated 2025)
Blank lines part the entries; values can stand above or below the molecule they belong to.

Assays:
Type in all cases: in vivo
rat brain (BBB) [1] = experiment: Evans Blue (EB) accumulation in rat brain after alternating electric fields
Source text: A set of in vivo experiments on rats was also run to quantify the increase in vessel permeability caused by exposure to the alternating electric fields. These experiments used Evans Blue (EB) dye, which is an azo dye that has a very high affinity for serum albumin (molecule size ˜69 kDa). Because of its large molecule size, serum albumin will ordinarily not be able to get past the BBB.
This was accomplished by shaving each rat's head, positioning a first pair of capacitively coupled electrodes on the top and bottom of the rat's head, and positioning a second pair of capacitively coupled electrodes on the left and right sides of the rat's head. A 100 kHz AC voltage was then applied between the top and bottom electrodes for 1 second, followed by a 100 kHz AC voltage applied between the right and left electrodes for 1 second, in a repeating sequence.
Under the conditions indicated in Table 1 and for the times indicated on Table 1, EB was injected intravenously into the tail vein under anesthesia (Once injected, EB immediately binds to Albumin), and the EB was allowed to circulate for 2 hours in all cases. The following steps were then performed: (a) intracardiac perfusion with saline; (b) brains are sliced in four pieces with a brain slicer; (c) pieces were photographed to localize staining and weighted; (d) EB extraction after tissue homogenization with TCA 50% (1:3) and centrifuge and (e) EB quantification at 610 nm. Results are given as μg EB per g tissue.
During the experiment, two animals from group 2 and one animal from group 4 were excluded (disrupted treatment, failure to inject EB into the tail vein). There were no differences between the animals treated with alternating electric fields (groups 1 and 2) and therefore these animals were grouped together. Similarly, there were no differences between sham heat and control animals (groups 3 and 4) and therefore these animals were grouped together.
EB accumulation in these four specific sections was then measured. In addition, a computer simulation was performed to determine the field strength in each of these four sections. […]

GBM F98 cells [2] = experiment: Paclitaxel plus alternating electric fields in rat GBM, Ki67/DAPI cell proliferation; conditions: 25 mg/kg PTX i.p. after 72 hours 100 kHz fields; day 13; vs alternating electric fields only
Description: (§1) Another set of in vivo experiments was performed to determine whether paclitaxel (PTX, which is a drug that ordinarily cannot traverse the BBB) can make it across the BBB when the subject is treated with alternating electric fields. In one of these experiments, glioblastoma was induced in rats by injecting them orthotopically with GBM F98 cells on day 0 of the experiment. On day 6, a first set of MRI scans of each rat's brains was obtained. Alternating electric fields at 100 kHz were applied to all the rats on days 7 through 10. On day 10 (i.e., after applying the fields for 72 hours), some of the rats were injected i.p. with 25 mg/kg PTX, while other rats were not injected. Subsequently, on day 13 (i.e., 3 days post PTX administration), a second set of MRI scans of each rat's brain was obtained. Ki67 (red) and DAPI (blue) staining was evaluated for the test and control rats.

GBM F98 cells [3] = experiment: Paclitaxel plus alternating electric fields in rat GBM, fold increase of tumor volume; conditions: 15 mg/kg PTX with 100 kHz fields, day 15, vs heat only
Description: as §1
A similar experiment using a 15 mg/kg dose of PTX was performed, except that instead of quantifying the Ki67/DAPI ratio on day 13, MRI scans and post mortem tissue sections were used to determine the fold increase of the tumor volume on day 15. The tumor volumes from these experiments are depicted in FIG. 11. […] And the inventors have concluded that the alternating electric fields allow the PTX (or metabolites thereof) to cross the BBB.

rat brain (BBB) [4] = experiment: DCE-MRI of Gadolinium contrast agent accumulation in rat brain; conditions: for contrast agent accumulation in the brain tissue, injection 96 h after the fields were turned off: 72 hours fields followed by 96 hours without fields vs control+96 h
Description: Yet another set of in vivo experiments was performed using Dynamic Contrast Enhanced MRI (DCE-MRI) with intravenous injection of Gadolinium contrast agent (Gd-DTPA, Magnetol, MW 547). In these experiments, test rats were treated with 100 kHz alternating electric fields for 72 h, and control rats were not treated with alternating electric fields for the same period of time. After this 72 h period, the alternating electric field was turned off, the rats were anesthetized, and a series of 60 T1w MRI scans (each of the scans having a duration of 28 seconds) was acquired. The gadolinium contrast agent was injected into the rat's tail vein during the 7th of these 60 scans.
The image analysis for each rat included (1) determining a baseline for each voxel by calculating the mean of the first six T1w MM scans for each voxel (i.e., the scans prior to the injection of the gadolinium); (2) computing voxel by voxel, the percent signal change (i.e., gadolinium accumulation) over time relative to the baseline; (3) segmenting the brain into anterior, middle, and posterior segments; (4) generating for each of the three segments the mean percent signal change with respect to the baseline over all the voxels in the respective segment and then (5) averaging 4 consecutive time points (i.e. 4 scans) together. Finally, the data from all of the rats within any given group were averaged together.
To test whether this increase in permeability of the BBB was temporary, the same test conditions were repeated, but followed with an additional 96 hours without alternating electric fields. After this 96 hour period, a series of 60 T1w MRI scans (each of the scans having a duration of 28 seconds) was acquired using the same procedure described above (including the gadolinium injection). The results of this portion of the DCE-MRI experiment for each of the three segments of the brain are also depicted in FIG. 8. […] From this we can conclude that the permeability of the BBB returns to normal after the alternating electric fields are discontinued.
The relationship between the intensity of the alternating electric fields and the impact of those fields on BBB integrity and permeability was also apparent from in vivo experiments in rats using serial dynamic contrast-enhanced (DCE) MM to measure gadolinium (Gd) uptake after 100 kHz alternating electric fields were applied for 72 hours. The rat's brains were segmented into three regions (anterior, posterior, and middle), and simulations of the alternating electric fields delivery to those three regions yielded field strengths of 1.5±0.6 V/cm RMS, 2.1±1.2 V/cm RMS, and 2.7±1.7 V/cm RMS respectively. […] These findings also indicate that the cells' response to alternating electric fields depends on the intensity of the fields.

average EB accumulation in the rat brain, averaged over all four sections 1-4 (rat brain (BBB) [1]; 100 kHz fields 72 hours vs sham heat/control, p<0.05): higher accumulation of EB | EB accumulation, brain sections 1, 2 (frontal cerebrum) (rat brain (BBB) [1]; 100 kHz fields 72 h vs sham heat/control, EB i.v., circulating 2 hours, field strength highest): statistically significant increase
Compound: Cc1cc(-c2ccc(/N=N/c3ccc4c(S(=O)(=O)O)cc(S(=O)(=O)O)c(N)c4c3O)c(C)c2)ccc1/N=N/c1ccc2c(S(=O)(=O)O)cc(S(=O)(=O)O)c(N)c2c1O [EB, Evans Blue]
EB accumulation, posterior brain sections (3, 4) (rat brain (BBB) [1]; 100 kHz fields 72 h vs sham heat/control, EB i.v., circulating 2 hours, field strength lower): smaller increase (that was not statistically significant)

Compound: CC(=O)O[C@H]1C(=O)[C@@]2(C)[C@H]([C@H](OC(=O)c3ccccc3)[C@]3(O)C[C@H](OC(=O)[C@H](O)[C@@H](NC(=O)c4ccccc4)c4ccccc4)C(C)=C1C3(C)C)[C@]1(OC(C)=O)CO[C@@H]1C[C@@H]2O [PTX, paclitaxel]
cell proliferation in the GBM tumor (Ki67/DAPI ratio) (GBM F98 cells [2]): significant decrease in cell proliferation | fold tumor volume increase in the GBM tumor (GBM F98 cells [3]): significant decrease in the fold tumor volume increase

Compound: O=C([O-])CN(CCN(CC(=O)[O-])CC(=O)O)CCN(CC(=O)[O-])CC(=O)O.[Gd+3] [Gd-DTPA]
Gd signal enhancement in the middle and posterior brain (rat brain (BBB) [4]; 100 kHz fields 72 hours, about 10 minutes after Gd injection, vs control rats): significantly increased signal enhancement | Gd accumulation in the anterior part of the brain (rat brain (BBB) [4]; 100 kHz fields 72 hours, lower field intensities in this region): no significant Gd accumulation | contrast agent accumulation in the brain tissue (DCE-MRI percent signal change) (rat brain (BBB) [4]; 100 kHz fields 72 h vs control rats, anterior, middle, posterior segments): significantly higher than in the control rats | contrast agent accumulation in the brain tissue, injection 96 h after the fields were turned off (rat brain (BBB) [4]; listed as Gd): no significant accumulation of Gd | contrast agent accumulation in the brain tissue, injection 96 h after the fields were turned off (rat brain (BBB) [4]; listed as contrast agent): not significantly different from the control rats | Gd accumulation in control rats (rat brain (BBB) [4]; rats not treated using alternating electric fields): No significant Gd accumulation | spatial distribution of Gd enhancement (rat brain (BBB) [4]; test rats (100 kHz fields 72 h), 20 to 23 minutes post-contrast administration): distributed in the whole brain
